Results: patent US20230097883A1, “ERGOTHIONEINE PET COMPOUNDS AND METHODS OF USE THEREOF” (VANDERBILT UNIVERSITY, priority 2021, published 2023)

System: oxidative stress
Assay: PET imaging of LPS-induced neuroinflammation with [11C]ERGO radioligand, with Tempol blocking
Format: in vivo, mouse
Conditions: LPS-treated WT mice, Tempol 0.2 mg/mL prior to [11C]ERGO
Experimental: The mice were injected with ˜20 MBq/0.1 ml 11C-ERGO via the tail vein and returned to their cages for 10 min. Then they were anesthetized with 2% isofluorane and imaged in an Inveon microPET (Siemens Pre-clinical, Knoxville, Tenn., USA) for 30 min in static mode followed by a CT scan using a NanoSPECT/CT (Mediso, Wash. D.C.) at an x-ray beam intensity of […] and x-ray voltage of 45 kVp. PET images were reconstructed using the iterative MAP reconstruction algorithm with 18 iterations and a beta smoothing value of 0.001 into 128×128×95 slices with a voxel size of 0.388 mm×0.388 mm×0.796 mm. The CT images were reconstructed into 170×170×126 slices at a voxel size of 0.4×0.4×0.4 mm^3. The PET and CT images were co-registered using the imaging tool AMIDE.
The mouse model of LPS-induced neuroinflammation was developed based on past reports. The LPS derived from Escherichia coli […] (Sigma Aldrich, St Louis, Mo.) was formulated in sterilized dd. water and given a high dose of LPS formulation (5 mg/Kg) through intraperitoneal injection 24 h before PET imaging. This high dose would result in approximately 12-13% body weight loss over the course of 24 h. After PET imaging, animals were sacrificed, and the brains were collected for histology analysis.
The reported LPS mouse model of neuroinflammation in the past was reproduced for the validation of the specificity of the probe. […]

With `CC1(C)CC(O)CC(C)(C)N1[O]` [Tempol, 4-hydroxy-2,2,6,6-tetramethyl piperidinoxyl, reference compound] the “[11C]ERGO PET signal in brain of LPS-treated mice after co-injection with excess Tempol (blocking)” value was “significant reduction of the PET signal”.
